These results are taken from patent EP4659739A9, “TOPICAL FORMULATION COMPRISING NON-COVALENT KERATIN-ACTIVE AGENT CONJUGATES FOR THERAPEUTIC USE” (Rigi Therapeutics AG, priority 2024, dated 2025).

A short description of series [1]: Penetration kinetics of Mometasonfuroat, Franz diffusion cell, HPLC. The format is in vitro ADME, human. The method, then: Um den Einfluss von monomerem beta-Keratin auf die Pharmakokinetik von Wirkstoffen nachzuweisen, wurde in einer halbfesten Cremematrix (Monovo® 1 mg/g Creme) gelöstes Mometasonfuroat, als Modellwirkstoff mit 2% Keratinpartikeln versetzt und zur Ausbildung von nicht-kovalenten Proteine-Wirkstoff-Konjugaten homogen verrührt und inkubiert. Zur Objektivierung der pharmakokinetischen Unterschiede wurde eine Diffusionskinetik der Formulierung ohne und mit Beimischung von Keratinpartikeln vergleichend bestimmt.
In der vorliegenden Studie wurde eine HPLC-Methode zur Quantifizierung von Mometasonfuroat in Proben aus der Penetrationsstudie verwendet. Es wurde eine analytische HPLC-UV-Methode entwickelt und validiert. Zur Bestimmung der Wiederfindung wurden dazu 3 Proben der Prüfformulierung mit 1,8 mL Lösungsmittel 1 h lang inkubiert (Laborschüttler, 150 U/min), anschließend zentrifugiert (13.000 U/min, 10 min) und gemessen. Die Wiederfindungsraten wurden mit den experimentell ermittelten Konzentrationen der Prüfgegenstände berechnet. Werte zwischen 95 % und 105 % wurden als unbeeinflusst und damit als korrekt angenommen.
Für jede Testformulierung wurden drei Humanhautproben, d. h. von drei verschiedenen Spendern untersucht. Jede Hautprobe ergab drei Stanzbiopsien zu drei verschiedenen Zeitpunkten, d. h. insgesamt […] Proben je Testformulierung. […]

For series [2], the system named is Chorion-Allantois-Membran. Briefly: HET-CAM, preclinical tolerability. Also on record: species or system Gallus gallus domesticus. How it is done: Als Screening hinsichtlich der Hautverträglichkeit der Keratinpartikel wurde dieses in eine halbfeste Formulierung eingearbeitet und an der Chorion-Allantois-Membran von acht- bis neuntägigen Gallus gallus domesticus Embryonen (Rasse: New Hampshire) getestet.
Die Hautverträglichkeit der Keratinpartikel wurde an der Chorion-Allantois-Membran von acht- bis neuntägigen Hühnerembryonen getestet. Befruchtete Hühnereier wurden hierfür acht bis neun Tage lang bei 37°C und 55 % Luftfeuchtigkeit bebrütet. Alle 12 Stunden wurden die Eier gewendet, ausgenommen die letzten 24 Stunden vor Versuchsbeginn. Die Öffnung der Eier wurde an den nach oben gerichteten Eierpolen durchgeführt, wofür die Eierschalen kreisrund (Ø 1,5 cm) geöffnet wurden. Nach dem Abnehmen der Eischalen wurden die Eihäute mit einer 37°C warmen 0,9%-igen NaCl-Lösung befeuchtet. Anschließend wurden unter der Sterilbank die äußeren Eihäute mittels Schere und Pinzette entfernt und die Chorion-Allantois-Membranen freigelegt. […] Die halbfeste Keratinpartikel-haltige Formulierung konnte nun an den gut ausgebildeten und unbeschädigten Blutgefäßen der Chorion-Allantois-Membranen aufgetragen und getestet werden. Das Testpräparat wurde an insgesamt sechs Eiern getestet, maximal 30 Minuten nach der Öffnung der Eier.
Im Rahmen der HET-CAM Untersuchungen wurden von dem Testpräparat (2,88 mg/ml kolloidale Keratin-Lösung in 0,5 % Hydoxyethylcellulose-Gel) je 200 µl auf die Chorion-Allantois-Membran appliziert und diese für insgesamt 300 Sekunden beobachtet. Während dieser Zeit wurden die Veränderungen an der Membran, hinsichtlich des Zeitpunktes des Auftretens (Irritationsscore, IS) und der Festlegung des Schweregrades zum Ende der Beobachtungszeit, dokumentiert. Hierbei wurden folgende Kriterien bewertet: Hämorrhagien (H) - das Auftreten von Blutungen; Gefäßlyse (L) - das Transparentwerden von Gefäßen und Koagulation (C) - das Stagnieren des Blutflusses als Zeichen der intravasalen Gerinnung. Als Negativkontrolle wurde steriles Wasser und als Positivkontrolle eine 1 %-ige Natriumlaurysulfat-Lösung eingesetzt. Die Berechnung des Irritationsscores (IS) erfolgte anhand der ICCVAM-Kriterien.
Als Bewertungskriterien des ISs wurden folgende Grenzwerte definiert:
Der Schweregrad von Veränderungen zum Ende des Beobachtungszeitraums wurde nach den folgenden Kriterien eingestuft:
Die Hämorrhagie (H) wurde entsprechend des Ausmaßes von Erythrozytenextravasaten den Kategorien halbquantitativ wie folgt zugeordnet: Einzelne Kapillarblutungen bei morphologisch intakten Kapillaren wurden als leichte, multiple Kapillarblutungen bei morphologisch intakten Kapillaren als mäßige und morphologisch geschädigte Kapillaren mit Kapillarblutungen oder Massenblutungen als schwere Hämorrhagie eingestuft. Vereinzelte transparente Kapillarabschnitte wurden als leichte, die Transparenz von ganzen Kapillaren als mäßige und das Auftreten von kompletten Gefäßlysen als schwere Lyse bewertet. Die Koagulation (C) wurde entsprechend des Ausmaßes von Koagulationsphänomenen den Kategorien halbquantitativ wie folgt zugeordnet: Einzelne Kapillarthrombosen bei morphologisch intakten Kapillaren wurden als leichte, multiple Kapillarthrombosen bei morphologisch intakten Kapillaren als mäßige und geschädigte Kapillaren mit langstreckigen Kapillarthrombosen als schwere C eingestuft. Die eingesetzten Hühnereier wurden nach einer Lagerung für 48 Stunden bei -20°C, hygienisch entsorgt. Tab.

Setting [3] is: summary Tab. 7, mean severity after 300 s.

Regarding `C[C@@H]1C[C@H]2[C@@H]3CCC4=CC(=O)C=C[C@]4(C)[C@@]3(Cl)[C@@H](O)C[C@]2(C)[C@@]1(OC(=O)c1ccco1)C(=O)CCl` [Mometasonfuroat], in series [1], the “kutane Bioverfügbarkeit” value is “keinen relevanten Einfluss”.

In the case of `CCCCCCCCCCCCOS(=O)(=O)O` [1 % Natriumlaurylsulfat-Lösung, Natriumlaurylsulfat], in series [2] (summary Tab. 7), the IS-C is on record as 6,01, the IS-Gesamt is reported as 9,80, the IS-H is recorded as 2,89 and the IS-L was 0,90. Also, in series [2] (setting [3]), the SG-C is given as 3,00, the SG-H was 1,67 and the SG-L is on record as 0,42.
